In series [1] the test system is Artificially-ventilated pentobarbital anesthetised rabbits. Put plainly: Intravenous infusion of carrier solutions saturated with pure nitric oxide gas; exhaled NO and MAP. The series is classed as in vivo, rabbit. The protocol: Male white New Zealand rabbits were subjected to different doses of an intravenous infusion of NO-substituted solutions at different doses. Several physiological parameters were measured during the experiments, including NO concentration in mixed exhaled gas (FENO).
(§1) Different carrier media solutions (table 1) were dissolved and diluted with saline or water to obtain different concentration of the solutions. The solution was then placed in a gas-tight chamber and deoxygenated by means of helium bubbling for 10 min. The glass chamber was then gassed with pure nitric oxide gas for 3-4 min.
Data are given as mean±SEM.

Series [2] has as its system pulmonary embolism / venous gas embolism in NO-synthesis inhibited animals. Kind of series: Treatment of embolism with NO in lipid emulsion in animals with inhibited NO production. It is filed as in vivo. As to conditions: animal with inhibited NO production. The text has this:
It is contemplated that the NO infusion exerts vasodilatory effects in the pulmonary circulation, and/or mild vasodilatory effect on systemic circulation, and inhibits thrombocyte aggregation, or a combination of these effects.
The beneficial effects may be induction of vasodilation in the pulmonary vasculature, inhibition of aggregation of thrombocytes and/or minor vasodilation in the whole or parts of the systemic circulation, for example in the coronary circulation.

The subject of series [3] is artificially ventilated pentobarbital anaesthetized rabbits. Kind of series: Effects of L-NAME infusion in anaesthetised rabbit. As to conditions: L-NAME 30 mg kg^−1 throughout 10 min.
Description: The experiments were approved by the local animal ethics committee. […] The animals were placed in supine position and tracheotomised just below the cricoid cartilage to allow mechanical ventilation using a tracheal cannula with an outer diameter of 5 mm. […] The ventilator was supplied with NO-free air using a charcoal filter (110×11 cm). […] The minute ventilation was 0.64-0.96 l min^−1. To the other side arm a pressure transducer (Statham, Hato Rey, Puerto Rico) was connected thus monitoring the insufflation pressure. The gas from the ventilator outlet was led through a switching valve to either of two beakers creating a positive end-expiratory pressure (PEEP) of 1-2 CmH2O or 4-5 cmhbO. During the experiment the gas flow was altered between the lower PEEP (9 min) and the higher PEEP (1 min) with an interval of totally 10 min. […] A heparinized catheter was inserted in the left common carotid artery for blood pressure and heart rate recordings (pressure transducer, Statham, Hato Rey, Puerto Rico), and arterial blood sampling. Another catheter was inserted in the right jugular vein for drug and muscle emboli administration. […] The muscles from the anterior compartment of the right lower hind limb were resected and placed in normal saline. Hereafter the animals were allowed a 30-60 min intervention-free period to obtain stable circulatory conditions and stable concentrations of expired NO.
NO concentration, in mixed exhaled gas, was continuously measured by means of a chemiluminescence based system (Niox, Aerocrine AB, Solna, Sweden) sampling at 100 ml min^−1 at the end of a mixing chamber connected to the ventilator exhaust. The full mixing of expired air thus measured on was intermittently checked by monitoring CO2 concentration in the same chamber. In a few experiments, gas for NO measurement was sampled from the trachea at the same point as for tidal CO2 measurements, thus yielding breath by breath NO concentrations. Calibration was done using certified NO standard gas in nitrogen (AGA Specialgas, Lidingδ, Sweden).
Blood samples were collected and analyzed for blood gases and acid-base status (ABL 300, Radiometer A/S, Copenhagen, Denmark) before L-NAME administration (group 2, time=−40 min) and shortly before muscle emboli challenge (group 1 and 2, time=−5 min). […] Arterial blood samples were collected and analysed at 10 min, 20 min, 40 min and 60 min after embolization. NO concentration in exhaled gas, end-tidal CO2, heart rate, mean arterial pressure and insufflation pressure was continuously monitored on a Grass Polygraph (Grass Instruments Co, Quincy, Mass., USA) during the experiments.
Series [4] is described as follows: Deoxygenation and exposure of carrier to NO gas (suitability for infusion). The series is classed as physicochemical. The protocol:
as §1

“Also recorded” adds a separate entry of the source.

Turning to `O=C(O)[C@H](O)[C@@H](O)[C@H](O[C@@H]1O[C@H](CO)[C@H](O)[C@H](O)[C@H]1O)[C@H](O)CO` [Lactobionic acid], in series [1] (compared to the saline control), the “effect as NO carrier / NO delivering capacity (words)” value is reported as “noticeable effect”. In series [1] (infusion versus pre-infusion), the “Exhaled NO, Change (%)” value is on record as 42%; the “Exhaled NO, Change (absolute value)” value was found to be 8.3 ppb; the “MAP, Change (%)” value is on record as −35%; the “MAP, Change (absolute value)” value is on record as −32.4 cmH2O.
On to `[N]=O` [inhaled nitric oxide, nitric oxide], for which the “treatment of venous gas embolism” value in series [2] was “impossible to treat”.
Turning to Polyethylene glycol, the “effect as NO carrier / NO delivering capacity (words)” value in series [1] (compared to the saline control) is recorded as “noticeable effect”. Besides, in series [1] (infusion versus pre-infusion), the “Exhaled NO, Change (%)” value is on record as 61%; the “Exhaled NO, Change (absolute value)” value was determined as 11.2 ppb; the “MAP, Change (%)” value is reported as −19%; the “MAP, Change (absolute value)” value is on record as −17.6 cmH2O.
As to `NCC(=O)O` [Glycine], in series [1] (infusion versus pre-infusion), the “Exhaled NO, Change (%)” value was −4% and the “Exhaled NO, Change (absolute value)” value is on record as −0.6 ppb.
Regarding `O=CC[C@H](O)[C@H](O)CO` [2-deoxy-Ribose], the “effect as NO carrier / NO delivering capacity (words)” value in series [1] (compared to the saline control) was “noticeable effect”. In addition, in series [1] (infusion versus pre-infusion), the “Exhaled NO, Change (%)” value is on record as 269% and the “Exhaled NO, Change (absolute value)” value is reported as 32.7 ppb.
As to Fucoidan [Fucoidan (10%)], in series [1] (compared to the saline control), the “effect as NO carrier / NO delivering capacity (words)” value is “noticeable effect”. In addition, in series [1] (infusion versus pre-infusion), the “Exhaled NO, Change (%)” value worked out at 23%; the “Exhaled NO, Change (absolute value)” value was found to be 4.7 ppb; the “MAP, Change (%)” value is reported as −52%; the “MAP, Change (absolute value)” value is recorded as −55.9 cmH2O.
As to `NCC(O)CO` (stereo not drawn) [3-Amino-1,2-propanediol], in series [1] (infusion versus pre-infusion), the “Exhaled NO, Change (%)” value stood at 0% and the “Exhaled NO, Change (absolute value)” value is on record as 0 ppb.
`CC(C)O` [Carrier 2-PropanoI, 2-propanol]: in series [1] (compared to the saline control), the “effect as NO carrier / NO delivering capacity (words)” value is listed as “noticeable effect; also recorded: marked effect”. For the same compound, in series [1] (infusion versus pre-infusion), the “Exhaled NO, Change (%)” value is 1400%; the “Exhaled NO, Change (absolute value)” value is listed as 180 ppb; the “MAP, Change (%)” value is −15%; the “MAP, Change (absolute value)” value is −14.7 cmH2O.
In the case of `COC(=O)[C@@H](N)CCCNC(=N)N[N+](=O)[O-]` [L-NAME, N^G-nitro-L-arginine methyl ester], in series [3], the “End-tidal CO2 and the relevant blood gas parameters” value is given as “normal”; the “exhaled nitric oxide after L-NAME infusion” value is reported as below 1 ppb; the “heart rate (HR) after L-NAME infusion” value came out at 258 beats min^−1; the “systemic mean arterial blood pressure (MAP) after L-NAME infusion” value is listed as 128 cmHaO.
On to `NC(CO)CO` [2-Amino-1,3-propanediol], for which, in series [1] (infusion versus pre-infusion), the “Exhaled NO, Change (%)” value was 14% and the “Exhaled NO, Change (absolute value)” value turned out to be 2.4 ppb.
In the case of `N=C(N)NCCC[C@H](N)C(=O)O` [Arginine], in series [1] (rabbit, in vivo), the “Exhaled NO, Change (%)” value is reported as 3% and the “Exhaled NO, Change (absolute value)” value is given as 0.6 ppb.
On to `OC[C@H]1O[C@@](CO)(O[C@H]2O[C@H](CO)[C@@H](O)[C@H](O)[C@H]2O)[C@@H](O)[C@@H]1O` [Sucrose (60%), Sucrose], for which the “effect as NO carrier / NO delivering capacity (words)” value in series [1] (compared to the saline control) is recorded as “noticeable effect”. Besides, in series [1] (infusion versus pre-infusion), the “Exhaled NO, Change (%)” value is listed as 75% and the “Exhaled NO, Change (absolute value)” value is listed as 11.2 ppb.
For `OCC(O)CO` [Glycerol], the “effect as NO carrier / NO delivering capacity (words)” value in series [1] (compared to the saline control) is listed as “act as a selective NO carrier”. For the same compound, the “effect as NO carrier / NO delivering capacity (words)” value in series [1] (compared to the saline control, listed as glycerol) is on record as “noticeable effect”. In series [1] (infusion versus pre-infusion), the “Exhaled NO, Change (%)” value is 475 ± 120% and the “Exhaled NO, Change (absolute value)” value was 63.3 ± 10.5 ppb.
`C[C@H](N)C(=O)O` [Alanine]: in series [1] (infusion versus pre-infusion), the “Exhaled NO, Change (%)” value stood at 0% and the “Exhaled NO, Change (absolute value)” value is recorded as 0 ppb.
Turning to PEG 400, the “effect as NO carrier / NO delivering capacity (words)” value in series [1] (compared to the saline control) is on record as “positive results”.
Regarding `COC1O[C@H](CO)[C@@H](O)[C@H]1O` (stereo partly drawn) [1-O-methyI-Ribose, 1-O-methyl-ribose], the “effect as NO carrier / NO delivering capacity (words)” value in series [1] (compared to the saline control) is “noticeable effect”. In series [1] (infusion versus pre-infusion), the “Exhaled NO, Change (%)” value worked out at 1284%; the “Exhaled NO, Change (absolute value)” value amounted to 155.9 ppb; the “MAP, Change (%)” value was −50%; the “MAP, Change (absolute value)” value is reported as −50.0 cmH2O.
As to `O=C[C@H](O)[C@@H](O)[C@H](O)[C@H](O)C(=O)O` [Glucuronic acid], in series [1] (infusion versus pre-infusion), the “Exhaled NO, Change (%)” value is recorded as 0% and the “Exhaled NO, Change (absolute value)” value was 0 ppb.
For the compound `N[C@@H](CS)C(=O)O` [L-cysteine], the “behaviour when deoxygenated and exposed to NO gas” value in series [4] is on record as “a copious precipitate, unsuitable for infusion, was formed”.
As to Inulin [Inulin (15%)], the “effect as NO carrier / NO delivering capacity (words)” value in series [1] (compared to the saline control) is on record as “noticeable effect”. Besides, in series [1] (infusion versus pre-infusion), the “Exhaled NO, Change (%)” value was 12%; the “Exhaled NO, Change (absolute value)” value turned out to be 1.8 ppb; the “MAP, Change (%)” value is recorded as −31%; the “MAP, Change (absolute value)” value is given as −26.5 cmH2O.
With Heparin [Heparin (15000 IU/ml, 10%)], in series [1] (infusion versus pre-infusion), the “Exhaled NO, Change (%)” value is listed as −5%; the “Exhaled NO, Change (absolute value)” value was −0.6 ppb; the “MAP, Change (%)” value is on record as −12%; the “MAP, Change (absolute value)” value was −8.8 cmH2O.
As for `OC[C@@H](O)[C@@H](O)[C@H](O)[C@H](O)CO` [Mannitol (20%), Mannitol], the “effect as NO carrier / NO delivering capacity (words)” value in series [1] (compared to the saline control) was “noticeable effect; also recorded: positive results”. Besides, in series [1] (infusion versus pre-infusion), the “Exhaled NO, Change (%)” value is 55.6% and the “Exhaled NO, Change (absolute value)” value worked out at 4.7 ppb.
For `CC(=O)N[C@@H](CS)C(=O)O` [N-Acetylcysteine] the same measures were “noticeable effect”, 19% and 4.1 ppb.
As to `C[C@H](O)[C@@H](O)[C@@H](O)[C@H](O)C=O` [Fucose], the “effect as NO carrier / NO delivering capacity (words)” value in series [1] (compared to the saline control) is given as “noticeable effect”. Besides, in series [1] (infusion versus pre-infusion), the “Exhaled NO, Change (%)” value amounted to 22% and the “Exhaled NO, Change (absolute value)” value is reported as 4.1 ppb.
As to `O=C[C@H](O)[C@@H](O)[C@@H](O)[C@H](O)CO` [Galactose (60%), Galactose], in series [1] (rabbit, in vivo), the “Exhaled NO, Change (%)” value amounted to 41%; the “Exhaled NO, Change (absolute value)” value stood at 3.3 ppb; the “effect as NO carrier / NO delivering capacity (words)” value is recorded as “noticeable effect”.
As for `CC(O)C(=O)O` (stereo not drawn) [Lactate], in series [1] (infusion versus pre-infusion), the “Exhaled NO, Change (%)” value came out at 0%; the “Exhaled NO, Change (absolute value)” value came out at 0 ppb; the “MAP, Change (%)” value is −2%; the “MAP, Change (absolute value)” value is −1.5 cmH2O.
For the compound `OCCCO` [1,3-Propanediol], the “effect as NO carrier / NO delivering capacity (words)” value in series [1] (compared to the saline control) is “noticeable effect; also recorded: exhibited NO delivering capacity”. Besides, in series [1] (infusion versus pre-infusion), the “Exhaled NO, Change (%)” value amounted to 562%; the “Exhaled NO, Change (absolute value)” value is reported as 78.2 ppb; the “MAP, Change (%)” value is reported as −33%; the “MAP, Change (absolute value)” value is listed as −38.2 cmH2O.
Taken in the same sequence, the figures for Dextran [Dextran (15%)] were “noticeable effect; also recorded: positive results”, 24%, 2.8 ppb, −34% and −45.5 cmH2O.
As for `CCCO` [Carrier 1-Propanol, 1-Propanol], in series [1] (infusion versus pre-infusion), the “Exhaled NO, Change (%)” value is given as 733% and the “MAP, Change (%)” value is given as −11%.
As for `CC(O)CO` (stereo not drawn) [1,2-Propanediol], the “effect as NO carrier / NO delivering capacity (words)” value in series [1] (compared to the saline control) is given as “noticeable effect; also recorded: exhibited NO delivering capacity”. In series [1] (infusion versus pre-infusion), the “Exhaled NO, Change (%)” value came to 217%; the “Exhaled NO, Change (absolute value)” value came to 27.9 ppb; the “MAP, Change (%)” value is listed as −16%; the “MAP, Change (absolute value)” value was −14.7 cmH2O.
Consider `CCO` [Etanol], for which, in series [1] (infusion versus pre-infusion), the “Exhaled NO, Change (%)” value came out at 0%; the “Exhaled NO, Change (absolute value)” value came out at 0 ppb; the “MAP, Change (%)” value turned out to be 0%; the “MAP, Change (absolute value)” value was 0 cmH2O.
On to `N[C@H]1C(O)O[C@H](CO)[C@@H](O)[C@@H]1O` (stereo partly drawn) [Glucosamine], for which, in series [1] (infusion versus pre-infusion), the “Exhaled NO, Change (%)” value was −9% and the “Exhaled NO, Change (absolute value)” value is −0.9 ppb.
Take `OC[C@@H](O)[C@@H](O)[C@H](O)[C@@H](O)CO` [Sorbitol (60%), Sorbitol]: in series [1] (compared to the saline control), the “effect as NO carrier / NO delivering capacity (words)” value is recorded as “noticeable effect”. In addition, in series [1] (infusion versus pre-infusion), the “Exhaled NO, Change (%)” value is 60% and the “Exhaled NO, Change (absolute value)” value is on record as 4.2 ppb.
In the case of `O=C(CO)[C@@H](O)[C@H](O)[C@H](O)CO` [Fructose (60%), Fructose], the “effect as NO carrier / NO delivering capacity (words)” value in series [1] (compared to the saline control) is “noticeable effect”. In addition, in series [1] (infusion versus pre-infusion), the “Exhaled NO, Change (%)” value turned out to be 88% and the “Exhaled NO, Change (absolute value)” value came to 13.1 ppb.
For `O=C[C@H](O)[C@H](O)[C@H](O)CO` [Ribose (50%), Ribose] the same measures were “noticeable effect”, 77 ± 43% and 8.2 ± 3.0 ppb.

The values above are taken from patent US8552068B2, “Compositions and methods” (priority 2004, dated 2013).
